Data published in patent US4751224A, “Treatment of metastasis” (Brown University Research Foundation, priority 1986, dated 1988).
Entries after “also recorded” stand apart in the source; their conditions may differ. Like-named read-outs stand apart in the source and are kept apart here.

Assays:
[1] = tested on: B16 amelanotic melanoma cells; experiment: PGI2 reduction of pulmonary tumor colonization by tail vein injected B16 amelanotic melanoma cells (Honn et al.); assay type: in vivo, mouse; conditions: PGI2 (Honn) compared with forskolin (applicant)
From the text: Since tumor cell-platelet interactions play a role in tumor metastasis, several laboratories have examined anticoagulants and anti-aggregating agents, such as heparin, warfarin (Hagmar and Norrby, Vol. 5 Int. J. Cancer, pp. 72-84, [1970]; Lione and Bosmann, Vol. 2 Cell Biol. Int. Res., pp. 81-86 [1972]; Hoover and Ketcham, Vol. 35 Cancer, pp. 5-14 [1975]); aspirin (Gasic et al., Lancet II, pp. 932-933 [1972]; Wood and Hilgard, Lancet II, pp. 1416-1416 [1972]; Hilgard et al., Vol. 86 Z. Krebsforsch., pp. 243-250 [1976]) and dipyridamole (Hilgard in Interaction of Platelets and Tumor Cells, pp. 143-158, Jameson [ed.] [1982]; Ambrus et al. in Platelets: A Multidisciplinary Approach, pp. 467-48, de Gaetano [ed.] [1982]) to reduce the incidence of tumor metastasis without treating the tumor per se in experimental animal models. However, the results of many of these studies were inconclusive.

[2] = tested on: B16 amelanotic melanoma cells; conditions: cited from earlier work
[3] = tested on: platelet aggregation; experiment: inhibition of platelet aggregation in vitro; assay type: cell-based, human; conditions: molar basis, PGI2 compared to forskolin
[4] = tested on: B16-F10 melanoma cells; experiment: pulmonary tumor colonization after tail vein injection of B16-F10 cells; assay type: in vivo, mouse (C57BL/6)
Experimental: (§1) Washed B16-F10 tumor cells (2 or 3×10^5) in 100 microliters Hanks balanced salts solution were injected from the tail vein 60 min (Exp. 1) or 30 min (Exp. 2, 3) after i.p. injection of 200 microliters DMSO (20 percent in saline) in control group; or forskolin (5 mM) prepared in DMSO (100 percent) and diluted to 1 mM with saline just before injection. The mice were sacrificed after 9 days (Exp. 1) or 14 days (Exp. 2, 3) and the lungs removed for examination. The tumor foci were counted with the help of a dissecting microscope.
The in vivo experimental procedure of Example II above was also repeated using a combination of forskolin and oxagrelate.

[5] = tested on: mice; conditions: cited from earlier work
[6] = tested on: human platelet aggregation induced by B16-F10 melanoma cells; experiment: B16-F10 melanoma cell-induced human platelet aggregation in vitro (light transmission in platelet-rich plasma); assay type: cell-based
Experimental: A mouse melanoma subline, B16-F10, (highly metastatic to the lungs) was obtained from EG & G Mason Research Institute, Worcester, MA, and adapted to growth in cell culture. The cultured cells were harvested by 1 min of trypsinization (0.25% trypsin-0.1% EDTA) or with the use of a rubber policeman, washed gently three times with Hank's balanced salts solution (HBBS, free of Ca^++ and Mg^++). […] Freshly drawn whole blood from healthy adult human donors was anticoagulated with heparin (5 units/ml). […] Platelet-rich plasma (PRP) was separated by centrifugation of the whole blood and platelet aggregation was measured in PRP by recording the increase in light transmission after the addition of the tumor cells.
Washed B16-F10 cell suspensions (2×10^7 /ml) were treated with potato apyrase (1 unit/ml) for about 5 min to degrade exogenous adenine nucleotides. Fifty microliters of the cell suspension was then added to the platelet-rich plasma after an incubation of 5 min with (A) 5 microliters DMSO (10% in saline) (Control) or (B) 5 microliters forskolin (200 micro Molars in DMSO 10% in saline). Final concentration of forskolin in PRP (500 microliters) was 2 micromolars.
The in vitro experimental procedure of Example I above was repeated using a combination of forskolin and oxagrelate. In this example the cell suspension was added to platelet-rich plasma incubated with a mixture of forskolin and oxagrelate.

[7] = tested on: mice; experiment: overt toxicity observation in mice after i.p. administration; assay type: in vivo, mouse (C57BL/6); conditions: 82 micrograms/mouse
Experimental: as §1, with “microscope. […] FIG. 2 presents typical specimens of lungs from untreated and forskolin-treated mice of experiments 2 and 3.” for “microscope.”

[8] = tested on: platelet aggregation; conditions: induced by a wide variety of aggregation stimulators; cited from earlier work
[9] = tested on: membrane adenylate cyclase; conditions: human platelets, via stimulation of membrane adenylate cyclase; cited from earlier work

| SMILES | potency as inhibitor of pulmonary tumor metastasis, PGI2 versus forskolin [1] | decrease in pulmonary tumor foci ([2]; PGI2 50-200 micrograms/mouse (Honn)) | pulmonary tumor colonization ([2]; PGI2, i.v. injection (Honn et al. 1981)) | potency in inhibiting platelet aggregation in vitro relative to forskolin [3] | Median number of pulmonary tumor foci ([4]; Experiment 1, 2×10^5 cells/mouse, i.p. 60 min before, 9 days, control median 189) | Median number of pulmonary tumor foci ([4]; Experiment 2, 3×10^5 cells/mouse, i.p. 30 min before, 14 days, control median 210) | Median number of pulmonary tumor foci ([4]; Experiment 3, 3×10^5 cells/mouse, i.p. 30 min before, 14 days, control median >600 (estimated)) | No. of pulmonary tumor foci (per mouse) ([4]; Experiment 3, 3×10^5 cells/mouse, i.p. 30 min before, 14 days, mice about 5 weeks old, control >600 (estimated)) | appearance of tumor foci (dissecting microscope) ([4]; experiments 2 and 3, compared with untreated mice) | direct effect on melanoma cells ([4]; forskolin i.p. prior to tail vein injection of cells) | LD 50 ([5]; i.p.) [mg/kg] | LD 50 ([5]; per OS) | inhibition at 0.4 µM ([6]; Homo sapiens, B16-F10, forskolin 0.4 micromolar alone, read-out: inhibition of tumor cell-induced platelet aggregation) [%] | melanoma cell-induced human platelet aggregation, inhibition ([6]; forskolin 2 micromolar, 5 min preincubation of PRP, B16-F10 2×10^6/ml) | in vitro inhibitory effect in combination with 2-fluoroadenosine ([6]; forskolin combined with 2-fluoroadenosine (F-Ado)) | in vitro inhibitory effect in combination with prostaglandin E ([6]; forskolin combined with prostaglandin E) | overt signs of toxicity [7] | inhibition of human platelet aggregation [8] | increase of intracellular concentration of cyclic AMP [9] | inhibition at 20 µM ([6]; Homo sapiens, B16-F10, oxagrelate 20 micromolar alone, read-out: inhibition of tumor cell-induced platelet aggregation) [%] |
| --- | --- | --- | --- | --- | --- | --- | --- | --- | --- | --- | --- | --- | --- | --- | --- | --- | --- | --- | --- | --- |
| CCCCC[C@H](O)/C=C/[C@@H]1[C@H]2C/C(=C/CCCC(=O)O)O[C@H]2C[C@H]1O [PGI2, prostacyclin] | similar | greater than 50% | reduces pulmonary tumor colonization | several hundred-fold more potent |  |  |  |  |  |  |  |  |  |  |  |  |  |  |  |  |
| C=C[C@@]1(C)CC(=O)[C@]2(O)[C@@]3(C)[C@@H](O)CCC(C)(C)[C@@H]3[C@H](O)[C@H](OC(C)=O)[C@@]2(C)O1 [forskolin, 7 beta-acetoxy-8,13-epoxy-1 alpha,6 beta,9 alpha trihydroxy-labd-14-en-11-one] | similar |  |  |  | 3.1 | 1 | 149.5 | 219,250,281 | smaller and more superficial | without effecting the melanoma cells directly | 105 | 3,100 mg/kg | 20 | strongly inhibits; also recorded: strongly blocked | potentiated | potentiated | No overt signs of toxicity | blocks human platelet aggregation | several-fold |  |
| CCOC(=O)c1c(C)cc2c(CO)nnc(O)c2c1C [oxagrelate] |  |  |  |  |  |  |  |  |  |  |  |  |  |  |  |  |  |  |  | 20 |
